Data from the supplement of paper PMC10307832.

Tests used:
Test in all cases: relative viability (nuclei count vs DMSO), 5 days (fraction); higher = more cells survive
[1] = system: CAL-12T
How it was run: (§1)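 Values are medians from duplicate plates. Each reflects relative viability, defined as the nuclei count of treated wells over that of vehicle wells. Lung cancer cell lines in 1536-well plates were pin-tool dosed one day after seeding with one drug alone or with a fixed anchor-drug dose plus five library-drug doses (not always all listed) in √10 steps, then fixed, stained and imaged at 4× after 5 days.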

[2] = system: COR-L 105
How it was run: as §1

[3] = system: ChaGo-K-1
How it was run: as §1

[4] = system: EMC-BAC-2
How it was run: as §1

[5] = system: EPLC-272H
How it was run: as §1

[6] = system: HCC-15
How it was run: as §1

[7] = system: HCC-78
How it was run: as §1

[8] = system: HOP-62
How it was run: as §1

[9] = system: LXF-289
How it was run: as §1

[10] = system: NCI-H1666
How it was run: as §1

[11] = system: NCI-H1755
How it was run: as §1

[12] = system: NCI-H1915
How it was run: as §1

[13] = system: NCI-H1975
How it was run: as §1

[14] = system: NCI-H1993
How it was run: as §1

[15] = system: NCI-H2023
How it was run: as §1

[16] = system: NCI-H2085
How it was run: as §1

[17] = system: NCI-H2126
How it was run: as §1

[18] = system: NCI-H3122
How it was run: as §1

[19] = system: NCI-H322M
How it was run: as §1

[20] = system: NCI-H358
How it was run: as §1

[21] = system: NCI-H441
How it was run: as §1

[22] = system: NCI-H522
How it was run: as §1

[23] = system: UMC-11
How it was run: as §1

C[C@@H]1CN(CC(=O)Nc2ccc3c(c2)Cc2cccc(-c4cc(=O)cc(N5CCOCC5)o4)c2S3)C[C@H](C)O1 + Nc1nc2[nH]cc(CCc3ccc(C(=O)N[C@@H](CCC(=O)O)C(=O)O)cc3)c2c(=O)[nH]1 [Pemetrexed] (partner 0.2 µM)
relative viability ([1]; first compound 0.04 µM): 1.27
relative viability ([1]; first compound 0.1265 µM): 1.21
relative viability ([1]; first compound 0.4 µM): 1.08
relative viability ([1]; first compound 4 µM): 0.428
relative viability ([2]; first compound 0.04 µM): 1.15
relative viability ([2]; first compound 0.1265 µM): 1.07
relative viability ([2]; first compound 0.4 µM): 1.19
relative viability ([2]; first compound 4 µM): 1.14
relative viability ([3]; first compound 0.04 µM): 0.24
relative viability ([3]; first compound 0.1265 µM): 0.245
relative viability ([3]; first compound 0.4 µM): 0.252
relative viability ([3]; first compound 4 µM): 0.226
relative viability ([4]; first compound 0.04 µM): 0.417
relative viability ([4]; first compound 0.1265 µM): 0.439
relative viability ([4]; first compound 0.4 µM): 0.458
relative viability ([4]; first compound 4 µM): 0.459
relative viability ([5]; first compound 0.04 µM): 0.311
relative viability ([5]; first compound 0.1265 µM): 0.371
relative viability ([5]; first compound 0.4 µM): 0.313
relative viability ([5]; first compound 4 µM): 0.269
relative viability ([6]; first compound 0.04 µM): 0.212
relative viability ([6]; first compound 0.1265 µM): 0.203
relative viability ([6]; first compound 0.4 µM): 0.224
relative viability ([6]; first compound 4 µM): 0.212
relative viability ([7]; first compound 0.04 µM): 0.809
relative viability ([7]; first compound 0.1265 µM): 0.84
relative viability ([7]; first compound 0.4 µM): 0.889
relative viability ([7]; first compound 4 µM): 0.917
relative viability ([8]; first compound 0.04 µM): 0.318
relative viability ([8]; first compound 0.1265 µM): 0.33
relative viability ([8]; first compound 0.4 µM): 0.317
relative viability ([8]; first compound 4 µM): 0.455
relative viability ([9]; first compound 0.04 µM): 0.884
relative viability ([9]; first compound 0.1265 µM): 0.99
relative viability ([9]; first compound 0.4 µM): 0.89
relative viability ([9]; first compound 4 µM): 0.818
relative viability ([10]; first compound 0.04 µM): 0.905
relative viability ([10]; first compound 0.1265 µM): 0.837
relative viability ([10]; first compound 0.4 µM): 0.845
relative viability ([10]; first compound 4 µM): 0.843
relative viability ([11]; first compound 0.04 µM): 0.401
relative viability ([11]; first compound 0.1265 µM): 0.507
relative viability ([11]; first compound 0.4 µM): 0.453
relative viability ([11]; first compound 4 µM): 0.47
relative viability ([12]; first compound 0.04 µM): 0.478
relative viability ([12]; first compound 0.1265 µM): 0.426
relative viability ([12]; first compound 0.4 µM): 0.413
relative viability ([12]; first compound 4 µM): 0.358
relative viability ([13]; first compound 0.04 µM): 0.268
relative viability ([13]; first compound 0.1265 µM): 0.263
relative viability ([13]; first compound 0.4 µM): 0.303
relative viability ([13]; first compound 4 µM): 0.274
relative viability ([14]; first compound 0.04 µM): 0.63
relative viability ([14]; first compound 0.1265 µM): 0.587
relative viability ([14]; first compound 0.4 µM): 0.542
relative viability ([14]; first compound 4 µM): 0.578
relative viability ([15]; first compound 0.04 µM): 0.263
relative viability ([15]; first compound 0.1265 µM): 0.213
relative viability ([15]; first compound 0.4 µM): 0.203
relative viability ([15]; first compound 4 µM): 0.199
relative viability ([16]; first compound 0.04 µM): 0.961
relative viability ([16]; first compound 0.1265 µM): 0.936
relative viability ([16]; first compound 0.4 µM): 0.935
relative viability ([16]; first compound 4 µM): 0.759
relative viability ([17]; first compound 0.04 µM): 0.668
relative viability ([17]; first compound 0.1265 µM): 0.657
relative viability ([17]; first compound 0.4 µM): 0.77
relative viability ([17]; first compound 4 µM): 0.695
relative viability ([18]; first compound 0.04 µM): 0.192
relative viability ([18]; first compound 0.1265 µM): 0.193
relative viability ([18]; first compound 0.4 µM): 0.192
relative viability ([18]; first compound 4 µM): 0.183
relative viability ([19]; first compound 0.04 µM): 0.597
relative viability ([19]; first compound 0.1265 µM): 0.607
relative viability ([19]; first compound 0.4 µM): 0.649
relative viability ([19]; first compound 4 µM): 0.657
relative viability ([20]; first compound 0.04 µM): 0.179
relative viability ([20]; first compound 0.1265 µM): 0.154
relative viability ([20]; first compound 0.4 µM): 0.162
relative viability ([20]; first compound 4 µM): 0.157
relative viability ([21]; first compound 0.04 µM): 0.281
relative viability ([21]; first compound 0.1265 µM): 0.263
relative viability ([21]; first compound 0.4 µM): 0.247
relative viability ([21]; first compound 4 µM): 0.217
relative viability ([22]; first compound 0.04 µM): 0.691
relative viability ([22]; first compound 0.1265 µM): 0.89
relative viability ([22]; first compound 0.4 µM): 1.11
relative viability ([22]; first compound 4 µM): 1.11
relative viability ([23]; first compound 0.04 µM): 0.757
relative viability ([23]; first compound 0.1265 µM): 0.764
relative viability ([23]; first compound 0.4 µM): 0.767
relative viability ([23]; first compound 4 µM): 0.674
